Results from ChEMBL document CHEMBL1201862, “PubChem BioAssay data set” (2004).
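Results reflect a 48-hour exposure of cells in 96-well plates to compound at five concentrations. GI50 = concentration required for 50% inhibition of growth.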 Activity calls are given as the source filed them. Rule as the data show it: active = GI50 up to about 1.1 µM and inactive = higher.

What was measured:
Test in all cases: DTP human tumour cell line panel, 48 h
A498 = test system: A498
A549 = test system: A549
ACHN = test system: ACHN
CAKI-1 = test system: CAKI-1
EKVX = test system: EKVX
HCC 2998 = test system: HCC 2998
HOP-62 = test system: HOP-62
HOP-92 = test system: HOP-92
HT-29 = test system: HT-29
Hs-578T = test system: Hs-578T
IGROV-1 = test system: IGROV-1
K562 = test system: K562
KM12 = test system: KM12
M14 = test system: M14
MCF7 = test system: MCF7
MDA-N = test system: MDA-N
MOLT-4 = test system: MOLT-4
NCI-H23 = test system: NCI-H23
NCI-H460 = test system: NCI-H460
NCI-H522 = test system: NCI-H522
OVCAR-5 = test system: OVCAR-5
RPMI-8226 = test system: RPMI-8226
RXF 393 = test system: RXF 393
SK-MEL-2 = test system: SK-MEL-2
SK-MEL-5 = test system: SK-MEL-5
SK-OV-3 = test system: SK-OV-3
SNB-19 = test system: SNB-19
SR = test system: SR
T47D = test system: T47D
UACC-62 = test system: UACC-62
UO-31 = test system: UO-31
786-0 = test system: 786-0
CCRF-CEM = test system: CCRF-CEM
COLO 205 = test system: COLO 205
DU-145 = test system: DU-145
HCT-116 = test system: HCT-116
HCT-15 = test system: HCT-15
HL-60 = test system: HL-60
LOX IMVI = test system: LOX IMVI
MDA-MB-231 = test system: MDA-MB-231
MDA-MB-435 = test system: MDA-MB-435
Malme-3M = test system: Malme-3M
NCI-H226 = test system: NCI-H226
NCI/ADR-RES = test system: NCI/ADR-RES
OVCAR-4 = test system: OVCAR-4
OVCAR-8 = test system: OVCAR-8
PC-3 = test system: PC-3
SF-268 = test system: SF-268
SF-295 = test system: SF-295
SF-539 = test system: SF-539
SK-MEL-28 = test system: SK-MEL-28
SN12C = test system: SN12C
SNB-75 = test system: SNB-75
SW-620 = test system: SW-620
TK-10 = test system: TK-10
U-251 = test system: U-251
UACC-257 = test system: UACC-257
OVCAR-3 = test system: OVCAR-3

For `CCN(CC)C(=S)SS(=O)(=O)c1ccc(N)cc1`, the GI50 (A498) was > 40.2 µM (inactive), the GI50 (A549) was 14.5 µM (inactive) and the GI50 (ACHN) was > 78.3 µM (inactive). For the same molecule, the GI50 (CAKI-1) was > 46.9 µM (inactive), the GI50 (EKVX) was > 100 µM (inactive) and the GI50 (HCC 2998) was > 29.1 µM (inactive). For the same molecule, the GI50 (HOP-62) was > 58.2 µM (inactive), the GI50 (HOP-92) was > 23.1 µM (inactive) and the GI50 (HT-29) was > 100 µM (inactive). For the same molecule, the GI50 (Hs-578T) was > 91 µM (inactive), the GI50 (IGROV-1) was 4.91 µM (inactive) and the GI50 (K562) was 39.5 µM (inactive). For the same molecule, the GI50 (KM12) was 29.6 µM (inactive), the GI50 (M14) was 70 µM (inactive) and the GI50 (MCF7) was 7.29 µM (inactive). For the same molecule, the GI50 (MDA-N) was 70.5 µM (inactive), the GI50 (MOLT-4) was 2.3 µM (inactive) and the GI50 (NCI-H23) was > 100 µM (inactive). The GI50 (NCI-H460) was 87.1 µM (inactive), the GI50 (NCI-H522) was 3.68 µM (inactive) and the GI50 (OVCAR-5) was > 100 µM (inactive). The GI50 (RPMI-8226) was 22.8 µM (inactive), the GI50 (RXF 393) was 31.8 µM (inactive) and the GI50 (SK-MEL-2) was > 100 µM (inactive). For the same molecule, the GI50 (SK-MEL-5) was 15.2 µM (inactive), the GI50 (SK-OV-3) was > 100 µM (inactive) and the GI50 (SNB-19) was > 100 µM (inactive). For the same molecule, the GI50 (SR) was 3.41 µM (inactive), the GI50 (T47D) was 76.7 µM (inactive) and the GI50 (UACC-62) was 39.4 µM (inactive). The GI50 (UO-31) was > 89.5 µM (inactive).

In the case of `Cn1/c(=N\c2ccccc2[N+](=O)[O-])sc2ccccc21`, the GI50 (786-0) is reported as 30.7 µM (inactive), the GI50 (A498) is reported as 54.8 µM (inactive) and the GI50 (A549) is reported as > 100 µM (inactive). The GI50 (ACHN) was 61.5 µM (inactive), the GI50 (CAKI-1) was 43.9 µM (inactive) and the GI50 (CCRF-CEM) was > 100 µM (inactive). The GI50 (COLO 205) was > 100 µM (inactive), the GI50 (DU-145) was > 100 µM (inactive) and the GI50 (EKVX) was 8.61 µM (inactive). The GI50 (HCC 2998) was 30.3 µM (inactive), the GI50 (HCT-116) was 72.8 µM (inactive) and the GI50 (HCT-15) was 2.61 µM. The GI50 (HL-60) was > 100 µM (inactive), the GI50 (HOP-62) was 20.6 µM (inactive) and the GI50 (HOP-92) was 14.7 µM (inactive). The GI50 (HT-29) was > 100 µM (inactive), the GI50 (Hs-578T) was 16.5 µM (inactive) and the GI50 (IGROV-1) was 5.4 µM (inactive). For the same molecule, the GI50 (K562) was > 100 µM (inactive), the GI50 (KM12) was 1.6 µM (inactive) and the GI50 (LOX IMVI) was > 100 µM (inactive). The GI50 (MDA-MB-231) was 6.1 µM (inactive), the GI50 (MDA-MB-435) was > 100 µM (inactive) and the GI50 (MDA-N) was > 100 µM (inactive). The GI50 (MOLT-4) was > 100 µM (inactive), the GI50 (Malme-3M) was > 100 µM (inactive) and the GI50 (NCI-H226) was 34.9 µM (inactive). For the same molecule, the GI50 (NCI-H23) was 26 µM (inactive), the GI50 (NCI-H460) was 50.2 µM (inactive) and the GI50 (NCI-H522) was 9.29 µM (inactive). For the same molecule, the GI50 (NCI/ADR-RES) was 95.9 µM (inactive), the GI50 (OVCAR-4) was 16.1 µM (inactive) and the GI50 (OVCAR-5) was 22 µM (inactive). The GI50 (OVCAR-8) was 49.9 µM (inactive), the GI50 (PC-3) was 66.1 µM (inactive) and the GI50 (RPMI-8226) was > 100 µM (inactive). For the same molecule, the GI50 (RXF 393) was 30.1 µM (inactive), the GI50 (SF-268) was 70.5 µM (inactive) and the GI50 (SF-295) was 42.6 µM (inactive). The GI50 (SF-539) was 28.2 µM (inactive), the GI50 (SK-MEL-28) was 89.7 µM (inactive) and the GI50 (SK-MEL-2) was 33.7 µM (inactive). The GI50 (SK-MEL-5) was 19.2 µM (inactive), the GI50 (SK-OV-3) was 23 µM (inactive) and the GI50 (SN12C) was 84.1 µM (inactive). For the same molecule, the GI50 (SNB-19) was 36.1 µM (inactive), the GI50 (SNB-75) was 18.4 µM (inactive) and the GI50 (SR) was > 100 µM (inactive). For the same molecule, the GI50 (SW-620) was > 100 µM (inactive), the GI50 (T47D) was 3.95 µM (inactive) and the GI50 (TK-10) was 8.93 µM (inactive). The GI50 (U-251) was 36.6 µM (inactive), the GI50 (UACC-257) was 29.9 µM (inactive) and the GI50 (UACC-62) was 30.5 µM (inactive). The GI50 (UO-31) was > 100 µM (inactive).

`COC(=O)[C@@H]1CCCN1CCN1CCC[C@H]1C(=O)OC` was tested, and the GI50 (786-0) was > 100 µM (inactive), the GI50 (A498) was > 100 µM (inactive) and the GI50 (A549) was > 100 µM (inactive). For the same molecule, the GI50 (ACHN) was > 100 µM (inactive), the GI50 (CAKI-1) was > 100 µM (inactive) and the GI50 (COLO 205) was > 100 µM (inactive). For the same molecule, the GI50 (DU-145) was > 100 µM (inactive), the GI50 (HCT-116) was > 100 µM (inactive) and the GI50 (HCT-15) was greater than 100 µM. The GI50 (HOP-62) was > 100 µM (inactive), the GI50 (HOP-92) was > 100 µM (inactive) and the GI50 (HT-29) was > 100 µM (inactive). The GI50 (K562) was > 100 µM (inactive), the GI50 (KM12) was > 100 µM (inactive) and the GI50 (M14) was > 100 µM (inactive). For the same molecule, the GI50 (MCF7) was > 100 µM (inactive), the GI50 (MDA-MB-231) was > 100 µM (inactive) and the GI50 (MDA-MB-435) was > 100 µM (inactive). For the same molecule, the GI50 (MDA-N) was > 100 µM (inactive), the GI50 (MOLT-4) was > 100 µM (inactive) and the GI50 (Malme-3M) was > 100 µM (inactive). For the same molecule, the GI50 (NCI-H23) was > 100 µM (inactive), the GI50 (NCI-H460) was > 100 µM (inactive) and the GI50 (NCI-H522) was > 100 µM (inactive). For the same molecule, the GI50 (NCI/ADR-RES) was > 100 µM (inactive), the GI50 (OVCAR-3) was > 100 µM (inactive) and the GI50 (OVCAR-4) was > 100 µM (inactive). For the same molecule, the GI50 (OVCAR-5) was > 100 µM (inactive), the GI50 (OVCAR-8) was > 100 µM (inactive) and the GI50 (PC-3) was > 100 µM (inactive). The GI50 (RPMI-8226) was > 100 µM (inactive), the GI50 (RXF 393) was > 100 µM (inactive) and the GI50 (SF-268) was > 100 µM (inactive). For the same molecule, the GI50 (SF-295) was > 100 µM (inactive), the GI50 (SF-539) was > 100 µM (inactive) and the GI50 (SK-MEL-28) was > 100 µM (inactive). For the same molecule, the GI50 (SK-MEL-2) was > 100 µM (inactive), the GI50 (SK-MEL-5) was > 100 µM (inactive) and the GI50 (SK-OV-3) was > 100 µM (inactive). For the same molecule, the GI50 (SN12C) was > 100 µM (inactive), the GI50 (SNB-19) was > 100 µM (inactive) and the GI50 (SR) was 31.8 µM (inactive). For the same molecule, the GI50 (SW-620) was > 100 µM (inactive), the GI50 (T47D) was > 100 µM (inactive) and the GI50 (TK-10) was > 100 µM (inactive). For the same molecule, the GI50 (U-251) was > 100 µM (inactive), the GI50 (UACC-62) was > 100 µM (inactive) and the GI50 (UO-31) was > 100 µM (inactive).
